The test system of test [1] is EGFR tyrosine kinase activity. As to the kind of experiment: FRET efficiency (FRET/CFP) time-lapse imaging in Cos-1 cells expressing biosensor. Type of test: cell-based, African green monkey.
Description: (§1) Fluorescence images of cells were acquired using an IX81 research-grade inverted microscope (Olympus) equipped with a stage incubator (LCI), a motorized XY-stage (Chuo Precision Industrial), and a CoolSNAP Myo cooled charge-coupled device (CCD) camera (Nippon Roper) under the control of MetaMorph software (Molecular Devices Japan). […] White light from a SOLA light engine (Lumencore) was attenuated by a 20% neutral density filter and used as excitation light after interference by each filter. Images were captured using a 60× oil immersion objective lens (numerical aperture 1.40) (4×4 binning, fluorescence images: exposure time 200 msec, differential interference contrast images: exposure time 20 msec).
(§2) After 24 hours, the medium was changed to phenol red-free MEM-F12 medium, and the cells were serum-starved for 4 hours. Time-lapse fluorescence imaging was then initiated, with FRET, CFP, and DIC images acquired every 30 seconds. Cells were stimulated by adding EGF to a final concentration of 50 ng/ml at 10 minutes after starting imaging, and imaging was continued for another 50 minutes. Following background subtraction, FRET efficiency was calculated as the ratio of cellular fluorescence intensity (FRET/CFP) from each channel at each time point.
Test [2] deals with T1, EGFR tyrosine kinase activity in A549 cells (Homo sapiens, UniProt P00533).
T1 construct: pFX-Pickles_2.34NES was introduced into A549 cells and H1299 cells; endogenous in cells; host or cells: A549
As to the kind of experiment: FRET efficiency in A549 cells expressing Pickles_2.34NES. Type of test: cell-based.
Description: as §1, §2

Test [3] concerns EGFR tyrosine kinase activity in H1299 cells. In words: FRET efficiency in H1299 cells expressing Pickles_2.34NES.
Description: as §1, §2
The target in test [4] is EGFR tyrosine kinase activity in HCC827 cells (Homo sapiens, UniProt P00533, DEL746-750). As to the kind of experiment: FRET efficiency in HCC827 cells expressing Pickles biosensor.
Description: as §1, §2

On to “Pickles_2.34: SEQ ID NO: 6: m1Venus, CrkL residues 1-222 with D94A, cp173-ECFP FRET biosensor”, for which, in test [1] (Cos-1 cells expressing Pickles, HGF instead of EGF, same amount), the “change in FRET efficiency with HGF stimulation” value is “did not change”. In addition, in test [1] (Cos-1 cells expressing the biosensor, EGF 50 ng/ml), the “increase in FRET efficiency upon EGF stimulation” value amounted to 77.7%.

“Pickles_2.34NES: SEQ ID NO: 7: Pickles_2.34 with the NES from protein kinase A inhibitor added to its N-terminus”: the “change in FRET efficiency upon EGF stimulation” value in test [2] is given as “increased significantly”. Further, the “increase in FRET efficiency upon EGF stimulation” value in test [3] is given as “slight”. The “response of FRET efficiency to EGF stimulation compared to Pickles_2.34” value in test [4] is on record as “higher sensitivity”.
